Legend:
A673 = assay: Response of tumor cell lines to erastin (dose-response); assay type: cell-based, human
Procedure: (§1) In certain aspects, the invention provides that erastin is lethal to tumor cells with activating mutations in proteins downstream of RAS proteins. Dose-response of 30 tumor cell lines to erastin was measured, and at least 50% inhibition of cell viability in 19 of the 30 tumor cell lines was formed. Numerous sarcoma-derived tumor cell lines were sensitive to erastin, consistent with the fact that erastin was discovered in an engineered tumor cell line created from human fibroblasts. Non-limiting examples include, HT1080 fibrosarcoma cells. HT1080 fibrosarcoma cells, which have a known activating mutation in NRAS, (Plattner, R. et al. Differential contribution of the ERK and JNK mitogen-activated protein kinase cascades to Ras transformation of HT1080 fibrosarcoma and DLD-1 colon carcinoma cells. Oncogene. 18: 1807-17 (1999), were quite sensitive to erastin. In order to determine whether RAS-activated signaling was modulated in cell lines that respond to erastin, the phosphorylation status of ERK1/2 in 12 sarcoma cell lines with a range of sensitivities to erastin was evaluated. In certain aspects, the invention provides a non-zero correlation, such as for example, a correlation coefficient of 0.41, between ERK1/2 phosphorylation status and erastin sensitivity in these cell lines.
(§2) Given that oncogenic RAS activates at least four downstream pathways, analysis was performed to identify which downstream effects were necessary for erastin sensitivity. In certain embodiments, the invention provides that erastin inhibits growth and kills genuine tumor cells with RAS mutations. In other embodiments, the invention provides measures of the dose-response of 29 tumor cell lines to erastin, wherein there is at least 50% inhibition of viability in 18 of the cell lines (Table 4). Numerous sarcoma-derived tumor cell lines were sensitive to erastin, consistent with the fact that erastin was discovered in an engineered tumor cell line created from human fibroblasts.

BJEH = assay: as above; assay type: cell-based, human; settings: BJ-TERT
Procedure: as §1, §2

BJELR = assay: as above; assay type: cell-based, human; settings: BJ-TERT/LT/ST/RASV12
Procedure: as §1, §2

HT1080 = assay: as above; assay type: cell-based, human; settings: HT 1080
Procedure: as §1, §2

EWS502 = assay: as above; assay type: cell-based; settings: EWS 502
Procedure: as §1, §2

HL-60 = assay: as above; assay type: cell-based
Procedure: as §1, §2

SK-ES-1 = assay: as above; assay type: cell-based; settings: SICES1
Procedure: as §1, §2

SK-N-MC = assay: as above; assay type: cell-based
Procedure: as §1, §2

SW872 = assay: as above; assay type: cell-based; settings: SW 872
Procedure: as §1, §2

TC32 = assay: as above; assay type: cell-based; settings: TC 32
Procedure: as §1, §2

TC71 = assay: as above; assay type: cell-based; settings: TC 71
Procedure: as §1, §2

U973 = assay: as above; assay type: cell-based; settings: U937
Procedure: as §1, §2

several tumor cell lines = assay: Potency in several tumor cell lines; assay type: cell-based

CCOc1ccccc1-n1c(C(C)N2CCN(C(=O)COc3ccc(Cl)cc3)CC2)nc2ccccc2c1=O (stereo not shown) [erastin]
Erastin Sensitivity (maximum killing induced by erastin) (A673): 0.54
Erastin Sensitivity (maximum killing induced by erastin) (BJEH): 0.22
Erastin Sensitivity (maximum killing induced by erastin) (BJELR): 1.00
Erastin Sensitivity (maximum killing induced by erastin) (HT1080): 0.98
Erastin Sensitivity (maximum killing induced by erastin) (EWS502): 0.42
Erastin Sensitivity (maximum killing induced by erastin) (HL-60): 0.00
Erastin Sensitivity (maximum killing induced by erastin) (SK-ES-1): 0.96
Erastin Sensitivity (maximum killing induced by erastin) (SK-N-MC): 0.95
Erastin Sensitivity (maximum killing induced by erastin) (SW872): 0.00
Erastin Sensitivity (maximum killing induced by erastin) (TC32): 0.88
Erastin Sensitivity (maximum killing induced by erastin) (TC71): 0.92
Erastin Sensitivity (maximum killing induced by erastin) (U973): 0.73
potency (several tumor cell lines): 1000 to 5000 nM

Reference: patent US8535897B2, “Assays for non-apoptotic cell death and uses thereof” (The Trustees of Columbia University in the City of New York, priority 2006, dated 2013)
